Assay results: patent US20260191927A1, “FORMULATION OF THERAPEUTIC AGENTS FOR IMPROVED PERMEATION” (priority 2023, published 2026)

Columns and labels:
[1] = Critical micelle concentration (CMC) of bile salts; assay type: physicochemical; conditions: approximate values; critical micellular concentration
Text: In some embodiments, a bile acid or salt thereof of the disclosure is characterized by a critical micelle concentration (CMC). In some embodiments, the bile acid or salt thereof aggregates and/or forms micelles at a concentration above the CMC. […] In some embodiments, the method comprises potentiometry, spectrophotometry, nuclear magnetic resonance, viscosimetry, turbidimetry, microcalorimetry, refractometry, conductimetry, cholesterol solubilization, bilirubin monoglucuronide solubilization, dye solubilization, fluorescence, capillary electrophoresis, reverse phase HPLC, freezing point depression, surface tension, and/or light scattering. In some embodiments, the CMC value is an average of at least 3-50 replicates measured by a single technique (e.g., 3-50 replicates measured by potentiometry, 3-50 replicates measured by spectrophotometry, or 3-50 replicates measured by light scattering). In some embodiments, the CMC value is an average of replicates measured by more than one technique, wherein at least 3, 4, 5, 6, 7, 8, 9, or 10 replicates are measured per technique (e.g., an average of (i) at least 3, 4, 5, 6, 7, 8, 9, or 10 replicates measured by potentiometry, (ii) at least 3, 4, 5, 6, 7, 8, 9, or 10 replicates measured by spectrophotometry, (iii) at least 3, 4, 5, 6, 7, 8, 9, or 10 replicates measured by light scattering, (iv) replicates from any pair-wise combination of (i)-(iii), or (v) replicates from a combination of (i)-(iii)).
The bile acids tested in the formulations are identified in Table 2. The bile acids selected for testing vary in the number of hydroxyl groups, stereochemistry of hydroxyl groups, and conjugation at terminal acid.

[2] = system: porcine ex vivo intestinal tissue
Method: (§1) A custom device confines larger tissue explants into individual compartments with donor and receiver chambers that face the apical and basolateral faces of the intestinal tissue, respectively. Porcine tissue was dissected as previously described from freshly harvested gastrointestinal tracts and jejunal segments were stored in calcium-free Krebs buffer at 4° C. for 16 hours prior to mounting between the receiver and donor compartments of a GI-ORIS device. Receiver compartments were filled with 150 μL of either 5% Bovine Serum Albumin (for Vancomycin) or 0.1% Ovalbumin (for Calcitonin, Insulin, Semaglutide) solutions prior to tissue mounting. […]
(§2) Vancomycin in receiver fluid samples was detected using LC-TOF. […] Quantification was performed relative to standard curves prepared in receiver fluid with no exposure to peptide.
(§3) Semaglutide in receiver fluid samples was detected using LC-QQQ. […] Quantification was performed relative to standard curves prepared in receiver fluid with no exposure to peptide.
(§4) Calcitonin and Insulin in receiver fluid samples (following a 1000× dilution in PBS) were detected using established protocols of commercial sandwich ELISA kits (Abcam, Waltham, MA, and Thermo Fisher Scientific, Waltham, MA). TMB chromogen absorbance was converted to peptide concentration relative to a standard curve prepared using provided standards in ELISA buffer. […]

[3] = system: porcine ex vivo intestinal tissue; assay: GI-ORIS ex vivo intestinal permeation assay
Method: as §1, §2, §3, §4

SMILES | CMC [1] | CMC (mg/mL) [1] | enhancement in intestinal permeability of the peptides [2] | lowest concentration for which a maximal effect on vancomycin permeability was observed [3]
C[C@H](CCC(=O)NCC(=O)[O-])[C@H]1CC[C@H]2[C@@H]3[C@H](O)C[C@@H]4C[C@H](O)CC[C@]4(C)[C@H]3CC[C@]12C.[Na+] [GCDCA, sodium glycochenodeoxycholate] | 2 mM | 0.9 mg/ mL mg/mL | – | –
C[C@H](CCC(=O)[O-])[C@H]1CC[C@H]2[C@@H]3[C@H](O)C[C@@H]4C[C@H](O)CC[C@]4(C)[C@H]3C[C@H](O)[C@]12C.[Na+] [CHA, sodium cholate] | 11 mM | 4.5 mg/ mL mg/mL | – | –
C[C@H](CCC(=O)NCC(=O)[O-])[C@H]1CC[C@H]2[C@@H]3CC[C@@H]4C[C@H](O)CC[C@]4(C)[C@H]3C[C@H](O)[C@]12C.[Na+] [GDCA, sodium glycodeoxycholate] | 2 mM | 0.9 mg/ mL mg/mL | – | –
C[C@H](CCC(=O)NCCS(=O)(=O)[O-])[C@H]1CC[C@H]2[C@@H]3[C@H](O)C[C@@H]4C[C@H](O)CC[C@]4(C)[C@H]3CC[C@]12C.[Na+] [TCDCA, sodium taurochenodeoxycholate] | 4 mM | 2.1 mg/ mL mg/mL | – | –
C[C@H](CCC(=O)NCCS(=O)(=O)[O-])[C@H]1CC[C@H]2[C@@H]3[C@H](O)C[C@@H]4C[C@H](O)CC[C@]4(C)[C@H]3C[C@H](O)[C@]12C.[Na+] [STC, sodium taurocholate] | 6 mM | 3.2 mg/ ml mg/mL | greatest enhancement in intestinal permeability | –
C[C@H](CCC(=O)[O-])[C@H]1CC[C@H]2[C@@H]3[C@H](O)C[C@@H]4C[C@H](O)CC[C@]4(C)[C@H]3CC[C@]12C.[Na+] [CDCA, sodium chenodeoxycholate] | 4 mM | 1.6 mg/ mL mg/mL | – | –
C[C@H](CCC(=O)[O-])[C@H]1CC[C@H]2[C@@H]3CC[C@@H]4C[C@H](O)CC[C@]4(C)[C@H]3C[C@H](O)[C@]12C.[Na+] [DCA, sodium deoxycholate] | 5 mM | 2.0 mg/ ml mg/mL | – | –
C[C@H](CCC(=O)NCCS(=O)(=O)[O-])[C@H]1CC[C@H]2[C@@H]3CC[C@@H]4C[C@H](O)CC[C@]4(C)[C@H]3C[C@H](O)[C@]12C.[Na+] [TDCA, sodium taurodeoxycholate] | 3 mM | 1.6 mg/ mL mg/mL | – | –
C[C@H](CCC(=O)NCC(=O)[O-])[C@H]1CC[C@H]2[C@@H]3[C@H](O)C[C@@H]4C[C@H](O)CC[C@]4(C)[C@H]3C[C@H](O)[C@]12C.[Na+] [GCA, sodium glycocholate] | 11 mM | 5.4 mg/ mL mg/mL | – | 128 mg/mL
